Results as given in patent US20260219274A1, “POLYOL SWEETNERS AND CARDIOVASCULAR AND THROMBOTIC EVENT RISK” (THE CLEVELAND CLINIC FOUNDATION, priority 2023, published 2026).

Tested on: PRP from healthy volunteers
Test: Xylitol dietary challenge: platelet aggregometry before and 30 min after ingestion
Format: in vivo, human
Protocol: The second part of xylitol ingestion studies focused on platelet phenotypic changes after oral xylitol challenge. In these parallel studies, platelet-rich plasma (PRP) was isolated immediately after the blood draw (from the same subjects that were used for xylitol pharmacokinetics studies) and aggregometry assays performed (as described below) on blood samples collected at baseline and 30 min (when postprandial peak levels were observed) after xylitol exposure.
A non-randomized study design was used wherein each subject served as their own control, comparing both xylitol levels and indices of platelet function within subjects at baseline versus 30 min following ingestion of the standardized drink of xylitol. […]
Platelet rich plasma (PRP) was isolated as previously described.^5 Whole blood was drawn from healthy donors and anticoagulated with sodium citrate (0.109 M). […] Next, platelets were counted with a hemocytometer and the platelet concentration adjusted to 2×10^8/mL using PPP. […] When used, pairs of vehicle vs. xylitol incubated PRP were always incubated and analyzed together (beginning, middle, end of platelet prep use) and after 120 minutes post isolation, PRPs were not used anymore.

## OC[C@@H](O)[C@H](O)[C@@H](O)CO [xylitol]
30 min after 30 g xylitol vs baseline
  aggregation responses to ADP or TRAP6 after ingestion: substantial (multiple-fold) increase
Submaximal ADP and TRAP6, after xylitol ingestion, every subject
  platelet responsiveness of individual subjects: significant increase
